Earlier results as cited in patent publication US20040028754A1, “Use of phyllanthus component for the treatment or prophylaxis of infections triggered by flaviviridae” (priority 2000, published 2004).

How the values were obtained:
[1] = test system: Ca^2+- and phospholipid-dependent protein kinase C (PKC) of the rat brain
[2] = target: T1, cAMP-dependent protein kinase of the rat liver (Rattus norvegicus, UniProt P27791)
T1 construct: the cAMP-dependent protein kinase of the rat liver; from tissue; host or cells: rat liver

[3] = test system: Ca^2+-dependent protein kinase of the wheat embryo
Staphylococcus aureus = conditions: 0.1 ml; extract 50 mg/ml, streptomycin 10 mg/ml
Bacillus subtilis = conditions: 0.1 ml; extract 50 mg/ml, streptomycin 10 mg/ml

Row | Compound | inhibition of protein kinase [1] | inhibition of protein kinase [2] | inhibition of protein kinase [3] | inhibition zone (Staphylococcus aureus) [mm] | inhibition zone (Bacillus subtilis) [mm]
1 | geraiin | most effective | most effective | most effective |  | 
2 | O=C1OC2C3OC(=O)C4=CC(=O)C5(O)Oc6c(O)c(O)cc(c6C4C5(O)O)C(=O)OC2C(OC(=O)c2cc(O)c(O)c(O)c2)OC3COC(=O)c2cc(O)c(O)c3c2C2C1=CC(=O)C(O)(O3)C2(O)O (centres unmarked) [amariin] | most effective | most effective | most effective |  | 
3 | [H]/N=C(/N)N[C@H]1[C@H](O)[C@@H](O)[C@H](O[C@@H]2O[C@@H](C)[C@](O)(C=O)[C@H]2O[C@@H]2O[C@@H](CO)[C@H](O)[C@@H](O)[C@@H]2NC)[C@@H](N/C(N)=N\[H])[C@@H]1O [streptomycin] |  |  |  | 35 | 35
